Assay [1] deals with pseudo-kinase domain (JH2) of human Wild Type JAK2 (Homo sapiens (Human), UniProt O60674, F794H/W659A/W777A). Description: JAK2 LanthaScreen JH2-WT Binding Assay. The note with it: JAK2 JH2-WT 0.145 nM, 50 nM tracer, 1 hour at 25° C.; read-out: JH2BIND_WT IC50. As to the method: Example B. JAK2 LanthaScreen JH2-WT Binding Assay
(§1) The assay was conducted in black 384-well polystyrene plates in a final reaction volume of 20 μL. JAK2 JH2-WT (0.145 nM) was incubated with compounds (100 nL serially diluted in DMSO) in the presence of 50 nM Fluorescent JAK2-JH2 Tracer (MedChem Express Catalog #HY-102055) and 0.25 nM Streptavidin-Tb cryptate (Cisbio Part #610SATLB) in assay buffer (50 mM Tris, pH=7.5, 10 mM MgCl2, 0.01% Brij-35, 0.1% BSA, 1 mM EGTA, 5% Glycerol and 5 mM DTT). Non-specific binding was accessed in the presence of 2 mM ATP. After incubation for 1 hour at 25° C., LanthaScreen signals were read on a PHERAstar FS plate reader (BMG LABTECH). Data was analyzed with IDBS XLfit and GraphPad Prism 5.0 software using a four parameter dose response curve to determine IC50 for each compound.
On the technique in general: Time-resolved FRET reads energy transfer from a long-lived donor to a nearby acceptor.

Assay [2] deals with catalytic domain (JH1, amino acids 826-1132) of human JAK2 (Homo sapiens (Human), UniProt O60674). Description: JAK2 LanthaScreen JH1 Binding Assay. Particulars: JAK2 JH1 1.5 nM, 50 nM tracer, 2 hours at 25° C.; read-out: JH1BIND IC50. As to the method: Example A. JAK2 LanthaScreen JH1 Binding Assay
as §1, with “JAK2 JH1 binding assay utilizes catalytic domain (JH1, amino acids 826-1132) of human JAK2 expressed as N-terminal FLAG-tagged, biotinylated protein in a baculovirus expression system (Carna Biosciences, Product #08-445-20N). The” for “The”, “JH1 (1.5” for “JH2-WT (0.145”, “fluorescent JAK2-JH1 tracer” for “Fluorescent JAK2-JH2 Tracer (MedChem Express Catalog #HY-102055)”, “0.5” for “0.25”, “2 hours” for “1 hour”

Assay [3] has as its target catalytic domain (JH1, amino acids 808-1132) of human JAK2 (Homo sapiens (Human), UniProt O60674). Description: JAK2 HTRF Enzyme Activity Assay. In kind it is biochemical. The note with it: ATP 30 μM, 60 minutes at 25° C.; read-out: ENZ 30UMATP IC50. As to the method: Example D. JAK2 HTRF Enzyme Activity Assay
JAK2 enzyme activity assays utilize catalytic domain (JH1, amino acids 808-1132) of human JAK2 expressed as N-terminal His-tagged protein in a baculovirus expression system (BPS Bioscience, Catalog #40450). The assays was conducted in black 384-well polystyrene plates in a final reaction volume of 20 μL. JAK2 (0.015 nM) was incubated with compounds (100 nL serially diluted in DMSO) in the presence of ATP (30 μM or 1 mM) and 500 nM Biotin-labeled […] (SEQ ID NO.: 1) peptide (BioSource International, custom synthesis) in assay buffer (50 mM Tris, pH=7.5, 10 mM MgCl2, 0.01% Brij-35, 0.1% BSA, 1 mM EGTA, 5% Glycerol and 5 mM DTT) for 60 minutes at 25° C. The reactions were stopped by the addition of 10 μL of detection buffer (50 mM Tris, pH 7.8, 0.5 mg/mL BSA, 150 mM NaCl), supplemented with EDTA, LANCE Eu-W1024 anti-phosphotyrosine (PY20), (PerkinElmer, Catalog #AD0067) and Streptavidin SureLight APC (PerkinElmer Catalog #CR130-100), for a final concentration of 15 mM, 1.5 nM and 75 nM, respectively. HTRF signals were read after 30 minutes incubation at room temperature on a PHERAstar FS plate reader (BMG LABTECH). Data was analyzed with IDBS XLfit and GraphPad Prism 5.0 software using a four parameter dose response curve to determine IC50 for each compound.

The target in assay [4] is pseudo-kinase domain (JH2) of human V617F mutant JAK2 (Homo sapiens (Human), UniProt O60674, F794H/V617F/W659A/W777A). As to the kind of experiment: JAK2 LanthaScreen JH2-V617F Binding Assay. Particulars: JAK2 JH2-V617F 0.26 nM, 50 nM tracer, 1 hour at 25° C.; read-out: JH2BINDING_V617F IC50. As to the method:
The assay was conducted in black 384-well polystyrene plates in a final reaction volume of 20 μL. […] Non-specific binding was accessed in the presence of 2 mM ATP. After incubation for 1 hour at 25° C., LanthaScreen signals were read on a PHERAstar FS plate reader (BMG LABTECH). Data was analyzed with IDBS XLfit and GraphPad Prism 5.0 software using a four parameter dose response curve to determine IC50 for each compound.

Our source for the IC50 values is patent publication US11691971B2, “Naphthyridinone compounds as JAK2 V617F inhibitors” (Incyte Corporation, priority 2020, dated 2023).

Counter-ions that a name gives are not always drawn. Bounds are passed on as bounds.

Chain of catalytic domain (JH1, amino acids 826-1132) of human JAK2 (O60674 826-1132): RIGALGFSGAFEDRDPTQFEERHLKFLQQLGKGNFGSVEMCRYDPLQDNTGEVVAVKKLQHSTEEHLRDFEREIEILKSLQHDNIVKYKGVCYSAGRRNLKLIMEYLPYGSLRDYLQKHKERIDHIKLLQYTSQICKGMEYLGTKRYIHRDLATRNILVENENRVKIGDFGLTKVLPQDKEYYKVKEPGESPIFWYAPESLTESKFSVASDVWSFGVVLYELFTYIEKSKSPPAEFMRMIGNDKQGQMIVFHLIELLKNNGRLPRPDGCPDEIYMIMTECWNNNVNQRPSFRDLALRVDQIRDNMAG
Chain of pseudo-kinase domain (JH2) of human Wild Type JAK2 (O60674 536-812 W659A/W777A/F794H): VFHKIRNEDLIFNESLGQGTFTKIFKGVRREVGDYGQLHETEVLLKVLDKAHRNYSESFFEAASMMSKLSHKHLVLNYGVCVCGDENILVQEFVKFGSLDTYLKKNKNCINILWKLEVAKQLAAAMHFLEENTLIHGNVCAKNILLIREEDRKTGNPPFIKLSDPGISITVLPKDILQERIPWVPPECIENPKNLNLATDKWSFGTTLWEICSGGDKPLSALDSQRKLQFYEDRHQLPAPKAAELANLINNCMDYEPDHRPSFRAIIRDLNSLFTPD
Chain of pseudo-kinase domain (JH2) of human V617F mutant JAK2 (O60674 536-812 V617F/W659A/W777A/F794H): as the sequence (O60674 536-812 W659A/W777A/F794H) above, with V82F counted along it
Chain of catalytic domain (JH1, amino acids 808-1132) of human JAK2 (O60674 808-1132): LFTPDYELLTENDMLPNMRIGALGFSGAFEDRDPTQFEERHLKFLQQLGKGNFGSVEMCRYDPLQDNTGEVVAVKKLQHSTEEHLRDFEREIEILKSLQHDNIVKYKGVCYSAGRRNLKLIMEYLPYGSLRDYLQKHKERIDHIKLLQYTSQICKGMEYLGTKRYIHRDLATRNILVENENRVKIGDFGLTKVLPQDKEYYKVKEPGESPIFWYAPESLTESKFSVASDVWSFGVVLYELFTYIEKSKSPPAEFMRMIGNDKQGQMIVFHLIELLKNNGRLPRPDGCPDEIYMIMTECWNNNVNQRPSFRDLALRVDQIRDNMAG

Broadly, the IC50 is the concentration needed to halve the response being measured. `CSc1c(Nc2cc(NC(=O)C3CC3)nc3cc[nH]c(=O)c23)cccc1-c1cnn(C2CCOCC2)c1` [Example 12, N-(4-((2-(Methylthio)-3-(1-(tetrahydro-2H-pyran-4-yl)-1H-pyrazol-4-yl)phenyl)amino)-5-oxo-5,6-dihydro-1,6-naphthyridin-2-yl)cyclopropanecarboxamide Trifluoroacetic Acid Salt]: the IC50 is 0.5 to 1 µM in assay [1], more than 10 µM in assay [2], more than 10 µM in assay [3] and 0.5 to 1 µM in assay [4].
As to `COc1cc(-c2cnn(C3CCOCC3)c2)ccc1Nc1cc(NC(=O)C2CC2)nc2cc[nH]c(=O)c12` [Example 7, N-(4-((2-Methoxy-4-(1-(tetrahydro-2H-pyran-4-yl)-1H-pyrazol-4-yl)phenyl)amino)-5-oxo-5,6-dihydro-1,6-naphthyridin-2-yl)cyclopropanecarboxamide Trifluoroacetic Acid Salt], the IC50 in assay [1] is 1 to 10 µM; in assay [2] it was 1 to 10 µM; in assay [3] it was 1 to 10 µM; in assay [4], more than 10 µM.
Consider `O=C(Nc1cc(Nc2ccccc2CO)c2c(=O)[nH]ccc2n1)C1CC1` [Example 23, N-(4-((2-(Hydroxymethyl)phenyl)amino)-5-oxo-5,6-dihydro-1,6-naphthyridin-2-yl)cyclopropanecarboxamide Trifluoroacetic Acid Salt], for which the IC50 is 1 to 10 µM in assay [1], 1 to 10 µM in assay [2], 1 to 10 µM in assay [3] and more than 10 µM in assay [4].
With `COc1c(Nc2cc(NC(=O)C3CC3)nc3cc[nH]c(=O)c23)cccc1C(=O)NCC1CCOCC1` [Example 11, 3-((2-(Cyclopropanecarboxamido)-5-oxo-5,6-dihydro-1,6-naphthyridin-4-yl)amino)-2-methoxy-N-((tetrahydro-2H-pyran-4-yl)methyl)benzamide Trifluoroacetic Acid Salt], the IC50 was 1 to 10 µM in assay [1], more than 10 µM in assay [2], more than 10 µM in assay [3] and 1 to 10 µM in assay [4].
Regarding `Cc1[nH]ncc1-c1c(Cl)cccc1Nc1cc(NC(=O)C2CC2)nc2cc[nH]c(=O)c12` [Example 17, N-(4-((3-Chloro-2-(5-methyl-1H-pyrazol-4-yl)phenyl)amino)-5-oxo-5,6-dihydro-1,6-naphthyridin-2-yl)cyclopropanecarboxamide Trifluoroacetic Acid Salt], the concentration for half-maximal inhibition (IC50) in assay [1] was in the range of 0.5 to 1 µM; in assay [2], 1 to 10 µM; in assay [3], 1 to 10 µM; in assay [4], 1 to 10 µM.
With `COc1c(Nc2cc(NC(=O)C3CC3)nc3cc[nH]c(=O)c23)cccc1N1CCN(S(=O)(=O)C2CC2)CC1` [Example 4, N-(4-((3-(4-(Cyclopropylsulfonyl)piperazin-1-yl)-2-methoxyphenyl)amino)-5-oxo-5,6-dihydro-1,6-naphthyridin-2-yl)cyclopropanecarboxamide Trifluoroacetic Acid Salt], the IC50 was 0.1 to 0.5 µM in assay [1], 1 to 10 µM in assay [2], more than 10 µM in assay [3] and 0.1 to 0.5 µM in assay [4].
`COc1c(Nc2cc(NC(=O)C3CC3)nc3cc[nH]c(=O)c23)cccc1C(F)(F)F` [Example 14, N-(4-((2-Methoxy-3-(trifluoromethyl)phenyl)amino)-5-oxo-5,6-dihydro-1,6-naphthyridin-2-yl)cyclopropanecarboxamide Trifluoroacetic Acid Salt]: the IC50 is 0.1 to 0.5 µM in assay [1], more than 10 µM in assay [2], more than 10 µM in assay [3] and 0.1 to 0.5 µM in assay [4].
Take `O=C(Nc1cc(Nc2ccccc2OC(F)F)c2c(=O)[nH]ccc2n1)C1CC1` [Example 20, N-(4-((2-(Difluoromethoxy)phenyl)amino)-5-oxo-5,6-dihydro-1,6-naphthyridin-2-yl)cyclopropanecarboxamide Trifluoroacetic Acid Salt]: the IC50 in assay [1], in assay [2], in assay [3] and in assay [4] was 1 to 10 µM each time.
